“And” between values parts separate entries of the source, which are not always exact repeats. Identical values can stand only once. Inconclusive results and toxic doses are left out. How the source made its calls: active means survival T/C of 150% or more; inactive means T/C below 125% in these data.
System: CD2F1 mice, L1210 leukemia ip, survival T/C
Test: NCI In Vivo Anticancer Drug Screen. Data for tumor model L1210 Leukemia (intraperitoneal) in CD2F1 (CDF1) mice
Conditions: higher = longer survival
Experimental: The antitumor activity of compounds was measured in mice bearing transplantable tumors. Survival or tumor size were measured and the results are expressed as the measurement made in the treated group (T) divided by the measurement made in the vehicle treated control group (C). The tumor model used in this assay is L1210 Leukemia (intraperitoneal) in CD2F1 (CDF1) mice

[1] = endpoint: mean survival time, dose: 100.0 mg/kg/injection, schedule: Q01DX001 (ip), vehicle: saline with Tween-80
[2] = endpoint: mean survival time, dose: 200.0 mg/kg/injection, schedule: Q01DX001 (ip), vehicle: saline with Tween-80
[3] = endpoint: mean survival time, dose: 400.0 mg/kg/injection, schedule: Q01DX001 (ip), vehicle: saline with Tween-80
[4] = endpoint: mean survival time, dose: 50.0 mg/kg/injection, schedule: Q01DX009 (ip), vehicle: Klucel (hydroxypropylcellulose) (HPC)
[5] = endpoint: mean survival time, dose: 100.0 mg/kg/injection, schedule: Q04DX003 (ip), vehicle: saline with Tween-80
[6] = endpoint: mean survival time, dose: 200.0 mg/kg/injection, schedule: Q04DX003 (ip), vehicle: saline with Tween-80
[7] = endpoint: mean survival time, dose: 400.0 mg/kg/injection, schedule: Q04DX003 (ip), vehicle: saline with Tween-80
[8] = endpoint: mean survival time, dose: 25.0 mg/kg/injection, schedule: Q01DX009 (ip), vehicle: saline with Tween-80
[9] = endpoint: mean survival time, dose: 50.0 mg/kg/injection, schedule: Q01DX009 (ip), vehicle: saline with Tween-80
[10] = endpoint: mean survival time, dose: 100.0 mg/kg/injection, schedule: Q01DX009 (ip), vehicle: saline with Tween-80
[11] = endpoint: mean survival time, dose: 100.0 mg/kg/injection, schedule: Q01DX001 (ip), vehicle: saline
[12] = endpoint: mean survival time, dose: 200.0 mg/kg/injection, schedule: Q01DX001 (ip), vehicle: saline
[13] = endpoint: mean survival time, dose: 400.0 mg/kg/injection, schedule: Q01DX001 (ip), vehicle: saline
[14] = endpoint: mean survival time, dose: 100.0 mg/kg/injection, schedule: Q01DX009 (ip), vehicle: Klucel (hydroxypropylcellulose) (HPC)
[15] = endpoint: mean survival time, dose: 200.0 mg/kg/injection, schedule: Q01DX009 (ip), vehicle: Klucel (hydroxypropylcellulose) (HPC)
[16] = endpoint: mean survival time, dose: 200.0 mg/kg/injection, schedule: Q01DX009 (ip), vehicle: saline with Tween-80

Measured: T/C

Oc1ccc(-c2nc3ccccc3s2)cc1
inactive: [1] 91 % of control | [2] 95 % of control | [3] 91 % of control

CC(=O)OCC(C)CCC(C)C(C)C1C(C)CC2C3CC=C4CC(OC(C)=O)CCC4(C)C3CCC21C (centres undefined)
inactive: endpoint: mean survival time, dose: 12.5 mg/kg/injection, schedule: Q01DX009 (ip), vehicle: Klucel (hydroxypropylcellulose) (HPC) 104 % of control | endpoint: mean survival time, dose: 25.0 mg/kg/injection, schedule: Q01DX009 (ip), vehicle: Klucel (hydroxypropylcellulose) (HPC) 101 % of control | [4] 101 % of control

CCOC(=O)c1ccc(N)c(C(O)(C(F)(F)F)C(F)(F)F)c1
inactive: [5] 103 % of control | [6] 97 % of control | [7] 97 % of control

Nc1cnc(/C=C/c2ccccc2)nc1
inactive: endpoint: mean survival time, dose: 75.0 mg/kg/injection, schedule: Q01DX001 (ip), vehicle: other 104 % of control | endpoint: mean survival time, dose: 150.0 mg/kg/injection, schedule: Q01DX001 (ip), vehicle: other 102 % of control

COc1ccc(C(=O)/C=C/c2cccc3ccccc23)cc1
inactive: [8] 91 % of control | [9] 93 % of control | [10] 91 % of control

COc1ccc(CC(N)C(=O)OCc2ccccc2)cc1N(CCCl)CCCl (centres undefined)
active: endpoint: mean survival time, dose: 3.0 mg/kg/injection, schedule: Q01DX009 (ip), vehicle: saline 177 % of control
inactive: endpoint: mean survival time, dose: 6.0 mg/kg/injection, schedule: Q01DX009 (ip), vehicle: saline 118 % of control

CC(=O)c1cc([N+](=O)[O-])ccc1O
inactive: [8] 90 % of control | [9] 90 % of control | [10] 88 % of control | [5] 97 % of control

O=C(c1ccccc1)C1C(c2ccccc2)C2(CCCCC2=O)C(c2ccccc2)CC1(O)c1ccccc1 (centres undefined)
inactive: endpoint: mean survival time, dose: 100.0 mg/kg/injection, schedule: Q01DX001 (ip), vehicle: Klucel (hydroxypropylcellulose) (HPC) 96 % of control

O=P(OCCCCCl)(OCCCCCl)C(Cl)Cl
inactive: [11] 100 % of control | [12] 100 % of control | [13] 108 % of control

c1ccc(CCN2COc3c(ccc4cccnc34)C2)cc1
inactive: endpoint: mean survival time, dose: 12.5 mg/kg/injection, schedule: Q04DX003 (ip), vehicle: saline with Tween-80 102 % of control | endpoint: mean survival time, dose: 25.0 mg/kg/injection, schedule: Q04DX003 (ip), vehicle: saline with Tween-80 91 % of control | endpoint: mean survival time, dose: 50.0 mg/kg/injection, schedule: Q04DX003 (ip), vehicle: saline with Tween-80 98 % of control

COc1ccc(NC(=O)Oc2cccc3ccccc23)c(Cl)c1
inactive: [4] 100 % of control | [14] 100 % of control | endpoint: mean survival time, dose: 100.0 mg/kg/injection, schedule: Q04DX003 (ip), vehicle: Klucel (hydroxypropylcellulose) (HPC) 106 % of control | [15] 100 % of control | endpoint: mean survival time, dose: 200.0 mg/kg/injection, schedule: Q04DX003 (ip), vehicle: Klucel (hydroxypropylcellulose) (HPC) 106 % of control | endpoint: mean survival time, dose: 400.0 mg/kg/injection, schedule: Q04DX003 (ip), vehicle: Klucel (hydroxypropylcellulose) (HPC) 102 % of control

COc1ccn(C2OCCC(N=[N+]=[N-])C2O)c(=O)n1 (centres undefined)
inactive: endpoint: median survival time, dose: 12.5 mg/kg/injection, schedule: Q01DX005 (ip), vehicle: alkali diluted with saline 109 % of control | endpoint: median survival time, dose: 25.0 mg/kg/injection, schedule: Q01DX005 (ip), vehicle: alkali diluted with saline 102 % of control | endpoint: median survival time, dose: 50.0 mg/kg/injection, schedule: Q01DX005 (ip), vehicle: alkali diluted with saline 108 % of control | endpoint: median survival time, dose: 100.0 mg/kg/injection, schedule: Q01DX005 (ip), vehicle: alkali diluted with saline 109 % of control | endpoint: median survival time, dose: 200.0 mg/kg/injection, schedule: Q01DX005 (ip), vehicle: alkali diluted with saline 98 % of control

O=C1CC(C(=O)O)C2(CCCCCC2)O1 (centres undefined)
inactive: endpoint: median survival time, dose: 12.5 mg/kg/injection, schedule: Q04DX003 (ip), vehicle: saline with Tween-80 90 % of control | endpoint: median survival time, dose: 25.0 mg/kg/injection, schedule: Q04DX003 (ip), vehicle: saline with Tween-80 90 % of control | endpoint: median survival time, dose: 50.0 mg/kg/injection, schedule: Q04DX003 (ip), vehicle: saline with Tween-80 100 % of control

COC12C(COC(N)=O)C3=C(C(=O)C(C)=C(N4CC4)C3=O)N1CC1NC12 (centres undefined)
inactive: endpoint: mean survival time, dose: 0.14 mg/kg/injection, schedule: Q01DX007 (ip), vehicle: acetone 124 % of control | endpoint: mean survival time, dose: 0.25 mg/kg/injection, schedule: Q01DX001 (ip), vehicle: acetone 106 % of control | endpoint: mean survival time, dose: 0.33 mg/kg/injection, schedule: Q01DX001 (ip), vehicle: acetone 116 % of control | endpoint: mean survival time, dose: 1.5 mg/kg/injection, schedule: Q01DX001 (ip), vehicle: carboxymethylcellulose (CMC) 114 % of control
active: endpoint: mean survival time, dose: 0.5 mg/kg/injection, schedule: Q01DX007 (ip), vehicle: acetone 153 % of control | endpoint: mean survival time, dose: 1.0 mg/kg/injection, schedule: Q01DX001 (ip), vehicle: carboxymethylcellulose (CMC) 151 % of control

Nc1ncccc1[N+](=O)[O-]
inactive: [1] 97 % of control | [5] 105 % of control | [2] 96 % of control | [6] 102 % of control | [3] 98 % of control | [7] 105 % of control

COC(=O)c1ccc[n+](CC(=O)c2ccccc2)c1
inactive: [9] 101 % of control | [10] 96 % of control | [16] 98 % of control

O=C(O)c1ccccc1NCc1ccccc1
inactive: [5] 100 % of control | [6] 96 % of control | [7] 87 % of control

CCNC1=CC(=O)CC(C)(C)C1
inactive: endpoint: mean survival time, dose: 75.0 mg/kg/injection, schedule: Q01DX001 (ip), vehicle: saline 106 % of control | endpoint: mean survival time, dose: 150.0 mg/kg/injection, schedule: Q01DX001 (ip), vehicle: saline 101 % of control | endpoint: mean survival time, dose: 300.0 mg/kg/injection, schedule: Q01DX001 (ip), vehicle: saline 109 % of control

NC(=O)N(CCO)CCO
inactive: endpoint: mean survival time, dose: 100.0 mg/kg/injection, schedule: Q01DX009 (ip), vehicle: saline 111 % of control | endpoint: mean survival time, dose: 200.0 mg/kg/injection, schedule: Q01DX009 (ip), vehicle: saline 107 % of control | endpoint: mean survival time, dose: 400.0 mg/kg/injection, schedule: Q01DX009 (ip), vehicle: saline 101 % of control

CC1=CC(=O)C(C(=O)CC(O)(C(F)(F)F)C(F)(F)F)C(=O)O1 (centres undefined)
inactive: [1] 98 % of control | [2] 104 % of control | [3] 95 % of control

O=C(SCc1ccccc1)c1cccnc1
inactive: endpoint: mean survival time, dose: 6.25 mg/kg/injection, schedule: Q01DX009 (ip), vehicle: saline 98 % of control | endpoint: mean survival time, dose: 12.5 mg/kg/injection, schedule: Q01DX009 (ip), vehicle: saline 98 % of control | [8] 94 % of control | endpoint: mean survival time, dose: 25.0 mg/kg/injection, schedule: Q01DX009 (ip), vehicle: saline 98 % of control | [9] 96 % of control | [10] 92 % of control

CC(C)(C)Sc1cccnc1 (tested in a mixture with another compound)
inactive: [10] 92 % of control | [16] 93 % of control

O=c1c2ccccc2sc2c1ccc1c2ccc2c(=O)c3ccccc3sc21
inactive: [4] 104 % of control | [14] 98 % of control | [15] 98 % of control

COc1ccc(C#N)c([N+](=O)[O-])c1
inactive: [5] 95 % of control | [6] 114 % of control

COC12[C@@H]3N[C@@H]3CN1C1=C(C(=O)C(N(C)CCN(C)C)=C(C)C1=O)[C@@H]2COC(N)=O (some centres undefined)
inactive: endpoint: median survival time, dose: 3.0 mg/kg/injection, schedule: Q01DX001 (ip), vehicle: saline 104 % of control | endpoint: median survival time, dose: 6.0 mg/kg/injection, schedule: Q01DX001 (ip), vehicle: saline 105 % of control | endpoint: median survival time, dose: 12.0 mg/kg/injection, schedule: Q01DX001 (ip), vehicle: saline 119 % of control and 105 % of control | endpoint: median survival time, dose: 24.0 mg/kg/injection, schedule: Q01DX001 (ip), vehicle: saline 109 % of control

O=S(=O)(N1CCCCC1)N1CCNCC1
inactive: endpoint: mean survival time, dose: 5.0 mg/kg/injection, schedule: Q01DX009 (ip), vehicle: saline with Tween-80 98 % of control | endpoint: mean survival time, dose: 5.0 mg/kg/injection, schedule: Q04DX003 (ip), vehicle: saline with Tween-80 103 % of control | endpoint: mean survival time, dose: 10.0 mg/kg/injection, schedule: Q01DX009 (ip), vehicle: saline with Tween-80 98 % of control | endpoint: mean survival time, dose: 10.0 mg/kg/injection, schedule: Q04DX003 (ip), vehicle: saline with Tween-80 103 % of control | endpoint: mean survival time, dose: 20.0 mg/kg/injection, schedule: Q01DX009 (ip), vehicle: saline with Tween-80 96 % of control | endpoint: mean survival time, dose: 20.0 mg/kg/injection, schedule: Q04DX003 (ip), vehicle: saline with Tween-80 97 % of control

O=C(O)C(=O)Cc1ccc2c(c1)OCO2
inactive: [11] 98 % of control | [12] 104 % of control | [13] 98 % of control

Source: PubChem BioAssay AID256 (DTP/NCI, 2004)
